According to PubChem BioAssay (NCI):
Several values for one entry are separate records, joined by “and”; a condition that tells them apart may be missing. Equal entries are not always repeated.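 The compound was tested at five concentrations on cells cultured in 96-well plates, with a 48-hour exposure period. Abbreviation: GI50, concentration required for 50% inhibition of growth. TGI: concentration producing complete growth inhibition.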

Key:
Experiment in all cases: NCI-60 cell line screen, 48 h
[1] = system: UACC-257 melanoma
[2] = system: NCI-H522 lung
[3] = system: NCI-H23 lung
[4] = system: LOX IMVI melanoma
[5] = system: NCI/ADR-RES ovarian
[6] = system: COLO 205 colon
[7] = system: MDA-MB-231 breast
[8] = system: OVCAR-4 ovarian

O=C1NC(=O)[C@@]2(CC[C@@H](O)C2)c2ccncc21 showed a TGI [1] of over 100 µM, a TGI [2] of over 100 µM and a TGI [3] of over 100 µM. It also gave a TGI [4] of over 100 µM, a TGI [5] of over 100 µM and a TGI [6] of over 100 µM. For the same molecule, the TGI [7] was over 100 µM and the TGI [8] was over 100 µM.
With O=C1C=C2C=CC3CC2(O1)C1CCCCN31 (stereo not given) the GI50 [1] was 25 µM and 13.8 µM and 86.8 µM, the TGI [1] was > 100 µM and 66.7 µM and the GI50 [2] was 10.1 µM and 11.1 µM and 32.8 µM. The TGI [2] was 28.1 µM and 32.4 µM and > 100 µM, the GI50 [3] was 19.9 µM and 15 µM and 31.7 µM and the TGI [3] was 56.7 µM and 43.5 µM and > 100 µM. For the same molecule, the GI50 [4] was 17.7 µM and 18 µM and 53.3 µM, the TGI [4] was 44.4 µM and 42.8 µM and > 100 µM and the GI50 [5] was 21.3 µM and 16.8 µM and 35.4 µM. For the same molecule, the TGI [5] was 61.2 µM and 43.4 µM and > 100 µM, the GI50 [6] was 21.6 µM and 15.1 µM and 58.7 µM and the TGI [6] was 73.5 µM and 29.3 µM and > 100 µM. For the same molecule, the GI50 [7] was 19 µM and 21.6 µM and 39.7 µM, the TGI [7] was > 100 µM and 67.9 µM and the GI50 [8] was 25.8 µM and 22.5 µM and 65 µM. The TGI [8] was > 100 µM and 92.1 µM.
In the case of C/C(=N\NC(=O)CC#N)C(CN1CCCCC1)C(c1ccccc1)c1c(O)c2ccccc2oc1=O (stereo not given), the TGI [1] is reported as over 100 µM, the TGI [2] is reported as over 100 µM and the TGI [3] is reported as over 100 µM. For the same molecule, the TGI [4] was 40.1 µM, the TGI [5] was over 100 µM and the TGI [6] was 32.6 µM. For the same molecule, the TGI [7] was over 100 µM and the TGI [8] was over 100 µM.
COc1cccc(-n2ncc3c(N/N=C/c4ccc(C)cc4)ncnc32)c1 showed a GI50 [1] of over 21.7 µM, a TGI [1] of over 25 µM and a GI50 [2] of over 25 µM. For the same molecule, the TGI [2] was over 25 µM, the GI50 [3] was over 25 µM and the TGI [3] was over 25 µM. For the same molecule, the GI50 [4] was over 25 µM, the TGI [4] was over 25 µM and the GI50 [5] was over 25 µM. The TGI [5] was over 25 µM, the GI50 [6] was 9.56 µM and the TGI [6] was over 25 µM. The GI50 [7] was over 25 µM, the TGI [7] was over 25 µM and the GI50 [8] was over 25 µM. For the same molecule, the TGI [8] was over 25 µM.
COC12C=C/C(=C(/C(=O)OCCSc3ccnn3C)C(=O)CCCCCCCCC3(OC)C=C/C(=C(/C(=O)OCCSc4ccnn4C)C(=O)CCCCCCCC1)O3)O2 showed a GI50 [1] of 1.35 µM, a TGI [1] of 11.4 µM and a GI50 [2] of 0.648 µM. The TGI [2] was 1.62 µM, the GI50 [3] was 0.854 µM and the TGI [3] was 2.37 µM. It also gave a GI50 [4] of 0.573 µM, a TGI [4] of 1.18 µM and a GI50 [5] of 1.64 µM. The TGI [5] was over 32.5 µM, the GI50 [6] was 0.814 µM and the TGI [6] was 2.15 µM. The GI50 [7] was 1.05 µM, the TGI [7] was 3.06 µM and the GI50 [8] was 0.837 µM. The TGI [8] was 2.5 µM.
Cc1c(N)nc([C@H](CC(N)=O)NC[C@H](N)C(N)=O)nc1C(=O)N[C@H](C(=O)N[C@H](C)[C@@H](O)CC(=O)N[C@H](C(=O)NC(O[C@@H]1O[C@@H](C)[C@@H](N)[C@@H](O)[C@H]1O)C(O)c1nc(-c2nc(C(=O)NCCCCN)cs2)cs1)[C@@H](C)O)[C@@H](O[C@@H]1O[C@@H](CO)[C@@H](O)[C@H](O)[C@@H]1O[C@H]1O[C@H](CO)[C@@H](O)[C@H](OC(N)=O)[C@@H]1O)c1c[nH]cn1 (stereo not given in full) showed a TGI [1] of over 50 µM, a TGI [2] of over 50 µM and a TGI [3] of over 50 µM. The TGI [4] was over 50 µM, the TGI [5] was over 50 µM and the TGI [6] was over 50 µM. For the same molecule, the TGI [7] was over 50 µM and the TGI [8] was over 50 µM.
O=C(O)CNc1ccc(Cl)c(Cl)c1 gave a TGI [1] of 96.3 µM, a TGI [2] of 38 µM and a TGI [3] of over 100 µM. For the same molecule, the TGI [4] was over 100 µM, the TGI [5] was 84.6 µM and the TGI [6] was 41.7 µM. For the same molecule, the TGI [7] was over 100 µM and the TGI [8] was over 100 µM.
With Cc1cn(CCC(N)C(=O)O)c(=O)[nH]c1=O (stereo not given) the TGI [1] was over 100 µM, the TGI [2] was over 100 µM and the TGI [3] was over 100 µM. For the same molecule, the TGI [4] was over 100 µM, the TGI [5] was over 100 µM and the TGI [6] was over 100 µM. The TGI [7] was over 100 µM and the TGI [8] was over 100 µM.
With O=C1/C(=C/c2ccc(F)c(F)c2)CN(C(=O)C(Cl)Cl)C/C1=C\c1ccc(F)c(F)c1 the GI50 [1] was 0.259 µM, the TGI [1] was 0.888 µM and the GI50 [2] was 0.166 µM. For the same molecule, the TGI [2] was 0.503 µM, the GI50 [3] was 0.139 µM and the TGI [3] was 0.428 µM. The GI50 [4] was 0.0222 µM, the TGI [4] was 0.0549 µM and the GI50 [5] was 0.0633 µM. For the same molecule, the TGI [5] was 0.868 µM, the GI50 [6] was 0.175 µM and the TGI [6] was 0.756 µM. For the same molecule, the GI50 [7] was 0.194 µM, the TGI [7] was 0.692 µM and the GI50 [8] was 0.233 µM. For the same molecule, the TGI [8] was 1.24 µM.
CCN1C(=O)N(CC)C2C1NN=c1s/c(=C\c3cccs3)c(=O)n12 (stereo not given) was tested, and the GI50 [1] was over 100 µM, the TGI [1] was over 100 µM and the GI50 [2] was 0.0974 µM. The TGI [2] was over 100 µM, the GI50 [3] was 0.375 µM and the TGI [3] was over 100 µM. It also gave a GI50 [4] of 0.139 µM, a TGI [4] of over 100 µM and a GI50 [5] of 0.0831 µM. The TGI [5] was over 100 µM, the GI50 [6] was 0.154 µM and the TGI [6] was over 100 µM. The GI50 [7] was 0.468 µM, the TGI [7] was over 100 µM and the GI50 [8] was 1.82 µM. For the same molecule, the TGI [8] was over 100 µM.
C[C@]12CC[C@@H]3c4ccc(O)cc4CC[C@H]3[C@@H]1CC[C@@H]2NS(=O)(=O)c1cccc(Cl)c1 showed a GI50 [1] of 2.9 µM, a TGI [1] of 12.3 µM and a GI50 [2] of 1.91 µM. The TGI [2] was 7.15 µM, the GI50 [3] was 2.72 µM and the TGI [3] was 10.8 µM. For the same molecule, the GI50 [4] was 1.75 µM, the TGI [4] was 3.4 µM and the GI50 [5] was 2.39 µM. The TGI [5] was 8.57 µM, the GI50 [6] was 1.81 µM and the TGI [6] was 3.31 µM. The GI50 [7] was 2.44 µM, the TGI [7] was 7.75 µM and the GI50 [8] was 2.2 µM. For the same molecule, the TGI [8] was 10.5 µM.
Molecule CCOc1cc(C(=O)O)c2c(ccc3ccc(OC)c(OC)c32)c1OC has a TGI [1] of over 100 µM, a TGI [2] of over 100 µM and a TGI [3] of over 100 µM. For the same molecule, the TGI [4] was over 100 µM, the TGI [5] was over 100 µM and the TGI [6] was over 100 µM. For the same molecule, the TGI [7] was over 100 µM and the TGI [8] was over 100 µM.
Molecule O=P(O)(O)OCC1OC(n2cnc3c(NCc4ccco4)ncnc32)C(O)C1O (stereo not given) has a GI50 [1] of over 100 µM, a TGI [1] of over 100 µM and a GI50 [2] of 1.14 µM. The TGI [2] was 19 µM, the GI50 [3] was 3.84 µM and the TGI [3] was over 70.5 µM. The GI50 [4] was 0.374 µM, the TGI [4] was 1.47 µM and the GI50 [5] was 1.62 µM. For the same molecule, the TGI [5] was over 53.7 µM, the GI50 [6] was 2.12 µM and the TGI [6] was 9.88 µM. It also gave a GI50 [7] of 0.479 µM, a TGI [7] of 13.9 µM and a GI50 [8] of 2.62 µM. The TGI [8] was over 41 µM.
